Test results taken from patent publication US20060234944A1, “Beta-secretase inhibitors and methods of use” (Oklahoma Medical Reseach Foundation, priority 2001, published 2006).
*1 amine or outer side, *2 acyl side, *3 side chain or, on linkers, in order; H or OH if unused. Where a SMILES comes first, the peptide text is derived from it. [ ]: non-standard residue; d: D form. The star is where a group is joined. LeuΨ(S-CHOHCH2)Ala = CC(C)C[C@H](N[*:1])[C@@H](O)C[C@@H](C)C(=O)[*:2]; 5FAM = O=C1OC2(c3ccc(O)cc3Oc3cc(O)ccc32)c2ccc(C(=O)*)cc21; Ahx = NCCCCCC(=O)O

Key:
HEK293 cells = assay: Entry of fluorescently labelled inhibitors into cultured cells (flow cytometry); type: cell-based, human; details: 10 to 30 minutes incubation
Experimental: Fluorescently labelled inhibitors or fluorescein (Fs) as a control were incubated with suspended cells for time intervals ranging from 10 to 30 minutes. Cells were fixed with paraformaldehyde and permeabilized in 0.2% Tween-20 in PBS for 6 minutes and incubated with anti-fluorescein-Alexa™ 488 antibody (Molecular Probes, Eugene, Oreg.) in order to enhance detection of intracellular inhibitor present from penetration. Flow cytometry (FACSCalibur™) and confocal fluorescent microscopy (Leica TCS NT™) were performed at the Flow and Image Cytometry Lab, OUHSC.

[1] = Transport of conjugated inhibitors into mouse blood cells, splenocytes and brain after i.p. injection
Experimental: Whole blood cells (with EDTA as anti-coagulant in the syringe or in the capillary tube) were isolated from anesthetized animals from the orbital artery or by heart puncture and diluted 1:10 in PBS. Prior to the harvest of other tissue samples, animals were anesthetized and perfused with 150 ml of neutral-buffered 10% formalin. Spleens were harvested intact. Brains were harvested and cerebral hemispheres separated, one for sectioning by cryostat, the other for single cell isolation for flow cytometry.
Sections of the brain hemispheres were obtained by soaking in OCT/PBS at 4° C. for overnight, recovered and frozen in Histo Prep Media.
To collect single cell suspensions, spleens and brain hemispheres were homogenized through a 30 μm screen and directly analyzed by flow cytometric analysis.

memapsin 2 = molecular target: T1, memapsin 2 (Homo sapiens, UniProt P56817); assay: Inhibition of memapsin 2 cleavage of fluorogenic substrate FS-2 (Ki, Ki apparent, Vi/Vo, % inhibition); type: biochemical; details: read-out: Ki for memapsin 2
T1 construct: made in house; host or cells: E. coli
T1 sequence (P56817 41-454): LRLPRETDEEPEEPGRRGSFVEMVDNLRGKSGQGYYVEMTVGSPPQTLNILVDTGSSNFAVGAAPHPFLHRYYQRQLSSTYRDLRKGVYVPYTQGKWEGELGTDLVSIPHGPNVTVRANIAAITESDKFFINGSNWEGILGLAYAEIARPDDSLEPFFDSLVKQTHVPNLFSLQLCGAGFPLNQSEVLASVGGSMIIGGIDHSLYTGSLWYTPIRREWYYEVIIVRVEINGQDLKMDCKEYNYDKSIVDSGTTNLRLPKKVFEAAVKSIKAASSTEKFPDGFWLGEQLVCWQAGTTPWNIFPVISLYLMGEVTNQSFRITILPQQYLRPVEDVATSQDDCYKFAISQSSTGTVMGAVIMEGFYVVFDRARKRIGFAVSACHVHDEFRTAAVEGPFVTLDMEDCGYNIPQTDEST
Experimental: Ki is the inhibition equilibrium constant which indicates the ability of compounds to inhibit the β-secretase activity of memapsin 2 and memapsin 1. […] The K1 value is independent of the substrate, and converted from Ki apparent.
The Vi/Vo values depicted in Table 1 were determined at conditions under which the enzyme and inhibitor concentrations were equal (e.g., about 80 nM, 100 nM).
(§1) The relationship of Ki (independent of substrate concentration) to Kiapp is a function of substrate concentration in the assay and the Km for cleavage of the substrate by either memapsin 1 or memapsin 2 by the relationship: Kiapp=Ki(1+[S]/Km).
Ki is the inhibition equilibrium constant which indicates the ability of compounds to inhibit the β-secretase activity of memapsin 2 and memapsin 1. […] The Ki value is independent of the substrate, and converted from Ki apparent.
(§2) An aliquot of the inhibitor of known concentration in DMSO was diluted into 1.8 ml 0.1 M NaOAc, pH 4.0. DMSO and added to a final concentration of 10% (v/v), and memapsin 2 (final concentration of 80 nM), followed by a 20 minute equilibration at 37° C. Compounds were evaluated for the ability to inhibit memapsin 1 and memapsin 2 at concentrations between about 10 nM and about 10 μm of inhibitor.
(§3) The relationship of Ki (independent of substrate concentration) to Kiapp is a function of substrate concentration in the assay and the Km for cleavage of the substrate by either memapsin 1 or memapsin 2 by the relationship: Kiapp=Ki (1+[S]/Km).

plasma Aβ40 [2] = assay: Inhibition of Aβ production in tg2576 transgenic mice (plasma Aβ40 ELISA); type: in vivo
Experimental: Six-month-old tg2576 mice (n=21) were injected intraperitoneally (i.p.) 200 μg of conjugate CPI-3 or with control DMSO, in 200 μl of PBS. Plasma were collected from anesthetized animals by orbital bleed or sephaneous vein into heparinized capillary tubes and clarified by centrifugation. Plasma A≢ 1-40 levels were determined by capture ELISA (BioSource International, Camarillo, Calif.). The peptide analogue of CPI-3, with an amide group instead of the hydroxyethylene isostere was synthesized by SynPep (Camarillo, Calif.).
Since the conjugate inhibitors can cross the blood brain barrier in vivo, enter cells both in vitro and in vivo, and inhibit Aβ production in vitro, inhibition of Aβ production in vivo was determined. Tg2576 mice, expressing the Swedish mutation of the human amyloid precursor protein (including SEQ ID NO: 11) (Hsiao, K., et al., Science 274:99-102 (1996), the teachings of which are incorporated hereby in their entirety) were injected with CPI-3, which is identical in amino acid sequence to CPI-2 and lacks the amino-terminal fluorescein (FAM) derivative. Blood was collected from tg2576 animals at time intervals following injection of 400 μg of CPI-3.

memapsin 1 = molecular target: T2, memapsin 1 (Homo sapiens, UniProt Q9Y5Z0); assay: Inhibition of memapsin 1 cleavage of fluorogenic substrate FS-2 (Ki apparent, % inhibition); type: biochemical; details: Table 9; read-out: Ki apparent (nM) Mep1
T2 construct: made in house; host or cells: E. coli
T2 sequence (Q9Y5Z0 63-466): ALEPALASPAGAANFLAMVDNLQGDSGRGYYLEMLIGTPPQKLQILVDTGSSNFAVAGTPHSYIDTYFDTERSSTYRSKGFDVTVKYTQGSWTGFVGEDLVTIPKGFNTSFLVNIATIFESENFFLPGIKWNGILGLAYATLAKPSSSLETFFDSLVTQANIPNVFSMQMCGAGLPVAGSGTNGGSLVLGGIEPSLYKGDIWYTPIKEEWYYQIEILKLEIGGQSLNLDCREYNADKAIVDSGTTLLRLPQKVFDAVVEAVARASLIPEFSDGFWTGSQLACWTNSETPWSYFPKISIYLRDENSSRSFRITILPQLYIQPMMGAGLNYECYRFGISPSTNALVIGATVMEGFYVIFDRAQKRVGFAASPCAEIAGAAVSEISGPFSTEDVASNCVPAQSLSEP
Experimental: Vi/Vo depicts the ratio of initial cleavage velocities of the substrate FS-2 (Ermolieff, et al., Biochemistry […]:12450-12456 (2000)) by memapsin 1 or memapsin 2 in the absence (Vo) or presence (Vi) of a compound of the invention. […] The Vi/Vo values depicted in Table 1 were determined at conditions under which the enzyme and inhibitor concentrations were equal (e.g., about 80 nM, 100 nM).
as §1, §2, §3

plasma Aβ40 [3] = assay: Inhibition of Aβ production in APP/F transgenic mouse model of Alzheimer's disease (plasma Aβ40 sandwich ELISA); type: in vivo, mice; details: control inhibitor, 163 nmoles i.p., 2 hours following injection
Experimental: Compounds MMI-138, MMI-165, and MMI-185 were synthesized as described above. Compounds were dissolved in 1 ml of dimethyl sulfoxide (DMSO) to a final concentration of about 1 mg/ml for MMI-165 and MMI-185, and about 10 mg/ml for MMI-138. […] Inhibitors were diluted into PBS or H2O immediately prior to injection, as described below. Inhibition constants were determined by methods described by Ermolieff, et al (Biochem. 39:12450-12456 (2000), the teachings of which are incorporated hereby in their entirety).
The tg2576 strain of mice was obtained from Taconic (Germantown, N.Y.). The APP/F strain of mice were obtained by mating the tg2576 mice with the FVB/N strain. To determine presence of the Swedish APP gene in APP/F mice, the DNA from mice was isolated according to the Qiagen Dneasy™ Tissue Kit. PCR (Qiagen kit and protocol) was used to amplify the fragment of DNA corresponding to the human Swedish APP gene. The following primers were used: […]
At the age of three months, animals of the Alzheimer's disease mouse model APP/F were injected intraperitoneally (i.p.) with about 163 nanomoles of either compounds MMI-138 (molecular weight 674 g/mole; 110 μg per animal, n=2), MMI-165 (molecular weight 626 g/mole; 102 μg per animal, n—2), or MMI-185 (molecular weight 686; 112 μg per animal, n—2).
Heparinized capillary tubes collected blood samples from anesthetized animals from either the retro-orbital sinus or from the saphenous vein at specified intervals following injection. The blood samples were transferred to sterile 1.5 mL microcentrifuge tubes, centrifuged at 5,100 RPM for 10 minutes to recover the plasma (supernatant), and stored at −70° C. until analysis for the Aβ40 by Enzyme Linked-Immuno-Sorbent Assay (ELISA).
A sandwich ELISA (BioSource International, Camarillo, Calif.) was used to determine the levels of Aβ40 in plasma samples. The ELISA utilizes a primary antibody specific for human Aβ for the immobilization of the amino-terminus and a detection antibody specific for the carboxy-terminal amino acids of Aβ40. A conjugated secondary antibody was used to detect the ternary complex, using a stabilized chromogen substrate, quantifiable following addition of 1 M HCl, with the optical densities measured at 450 nm. The procedures were followed according to the BioSource protocol. Optical densities were converted to pg/ml quantities of Aβ40 using a linear regression of the optical densities of standards obtained from the commercial kit, to their known concentrations.

plasma Aβ40 [4] = assay: as above; type: in vivo, mice; details: unconjugated inhibitor, MW 935 g/mole
[5] = Martin et al., Aids 13:1227-32 (1999); cited from earlier work
[6] = four injections at 2 hour intervals

## CC(C)C[C@H](NC(=O)[C@H](CC(N)=O)NC(=O)[C@@H](NC(=O)[C@H](CCC(=O)O)NC(=O)CCCCCNC(=O)c1ccc2c(c1)C(=O)OC21c2ccc(O)cc2Oc2cc(O)ccc21)C(C)C)[C@@H](O)C[C@@H](C)C(=O)N[C@@H](C)C(=O)N[C@@H](CCC(=O)O)C(=O)N[C@@H](Cc1ccccc1)C(=O)NCC(=O)N[C@@H](Cc1ccc(O)cc1)C(=O)NCC(=O)N[C@@H](CCCNC(=N)N)C(=O)N[C@@H](CCCCN)C(=O)N[C@@H](CCCCN)C(=O)N[C@@H](CCCNC(=N)N)C(=O)N[C@@H](CCCNC(=N)N)C(=O)N[C@@H](CCC(N)=O)C(=O)N[C@@H](CCCNC(=N)N)C(=O)N[C@@H](CCCNC(=N)N)C(=O)N[C@@H](CCCNC(=N)N)C(=O)O [CPI-1] ({5FAM-Ahx}-EVN[LeuΨ(S-CHOHCH2)Ala]AEFGYGRKKRRQRRR-OH)
HEK293 cells
  Penetration of cultured cells (intracellular fluorescence): readily penetrated cultured cells within minutes
[1]; 8 hours after i.p. injection, flow cytometry or confocal microscopy of brain sections
  Uptake into brain (fluorescence): penetration of the fluorescent conjugate into all brain cells
[1]; whole blood 20 minutes after i.p. injection of 0.3 nmol
  Blood cells with strong fluorescence signal: approximately 100%

## CC(C)C[C@H](NC(=O)[C@H](CCC(=O)O)NC(=O)CCCCCNC(=O)c1ccc2c(c1)C(=O)OC21c2ccc(O)cc2Oc2cc(O)ccc21)C(=O)N[C@@H](CC(=O)O)C(=O)N[C@@H](CC(C)C)[C@@H](O)C[C@@H](C)C(=O)N[C@H](C(=O)N[C@@H](CCC(=O)O)C(=O)N[C@@H](Cc1ccccc1)C(=O)NCC(=O)NCC(=O)N[C@H](CCCNC(=N)N)C(=O)N[C@H](CCCNC(=N)N)C(=O)N[C@H](CCCNC(=N)N)C(=O)N[C@H](CCCNC(=N)N)C(=O)N[C@H](CCCNC(=N)N)C(=O)N[C@H](CCCNC(=N)N)C(=O)N[C@H](CCCNC(=N)N)C(=O)N[C@H](CCCNC(=N)N)C(=O)N[C@H](CCCNC(=N)N)C(=O)O)C(C)C [CPI-2] ({5FAM-Ahx}-ELD[LeuΨ(S-CHOHCH2)Ala]VEFGG[dR][dR][dR][dR][dR][dR][dR][dR][dR]-OH)
HEK293 cells
  Penetration of cultured cells (intracellular fluorescence): readily penetrated cultured cells within minutes

## CC(C)C[C@H](NC(=O)[C@@H](N)CCC(=O)O)C(=O)N[C@@H](CC(=O)O)C(=O)N[C@@H](CC(C)C)[C@@H](O)C[C@@H](C)C(=O)N[C@H](C(=O)N[C@@H](CCC(=O)O)C(=O)N[C@@H](Cc1ccccc1)C(=O)NCC(=O)NCC(=O)N[C@H](CCCNC(=N)N)C(=O)N[C@H](CCCNC(=N)N)C(=O)N[C@H](CCCNC(=N)N)C(=O)N[C@H](CCCNC(=N)N)C(=O)N[C@H](CCCNC(=N)N)C(=O)N[C@H](CCCNC(=N)N)C(=O)N[C@H](CCCNC(=N)N)C(=O)N[C@H](CCCNC(=N)N)C(=O)N[C@H](CCCNC(=N)N)C(=O)O)C(C)C [CPI-3] (H-ELD[LeuΨ(S-CHOHCH2)Ala]VEFGG[dR][dR][dR][dR][dR][dR][dR][dR][dR]-OH; N-terminus and C-terminus assumed)
Memapsin 2
  Ki: 35 nM
Plasma Aβ40 [2]; 2 hours following i.p. injection
  Plasma Aβ40 level relative to initial value: about one third
Plasma Aβ40 [2]; [6]
  Aβ level, average low as % of the average initial value: 29%
  Inhibition of plasma Aβ: about 80%
Plasma Aβ40 [2]; i.p., various doses
  Plasma Aβ40 relative to PBS control two hours following injection: significant dose-dependent reduction
Plasma Aβ40 [2]; single i.p. injection
  Time of return of plasma Aβ40 to the initial value: ≤ 8 h

## CC(C)C[C@H](NC(=O)[C@@H](N)CCC(=O)O)C(=O)N[C@@H](CC(=O)O)C(=O)N[C@@H](CC(C)C)[C@@H](O)C[C@@H](C)C(=O)N[C@H](C(=O)N[C@@H](CCC(=O)O)C(=O)N[C@@H](Cc1ccccc1)C(=O)O)C(C)C [OM00-3, ELDL*AVEF] (H-ELD[LeuΨ(S-CHOHCH2)Ala]VEF-OH; N-terminus assumed)
Memapsin 1
  Ki: 0.18 nM
Plasma Aβ40 [2]; i.p. injection (FIG. 21C)
  Effect on plasma Aβ40 levels: did not reduce plasma Aβ40 levels
Plasma Aβ40 [3]
  Decrease of plasma Aβ40: 16%
Plasma Aβ40 [4]
  Inhibition of Aβ40 production in vivo: failed to inhibit Aβ40 production

## CC(C)(C)NC(=O)[C@@H]1CN(Cc2cccnc2)CCN1C[C@@H](O)C[C@@H](Cc1ccccc1)C(=O)N[C@H]1c2ccccc2C[C@H]1O [indinavir]
[5]
  Crossing of the blood-brain barrier: can cross the blood-brain barrier
